In ChEMBL document CHEMBL1153210, “Synthesis, spectral analysis and in vitro microbiological evaluation of 3-(3-alkyl-2,6-diarylpiperin-4-ylidene)-2-thioxoimidazolidin-4-ones as a new class of antibacterial and antifungal agents” (2010) one finds MIC data, which are given here for 17 compounds.

Assay [1] concerns Staphylococcus aureus. Nature of the assay: Antibacterial activity against Staphylococcus aureus after 24 hrs by twofold serial dilution method. Format: functional.
Assay [2] deals with Streptococcus. Nature of the assay: Antibacterial activity against beta-Hemolytic streptococcus after 24 hrs by twofold serial dilution method. Format: functional.
Assay [3] relates to Vibrio cholerae. Nature of the assay: Antibacterial activity against Vibrio cholerae after 24 hrs by twofold serial dilution method. Type of assay: functional.
In assay [4] the test system is Escherichia coli. The experiment in a line: Antibacterial activity against Escherichia coli after 24 hrs by twofold serial dilution method. Format: functional.
The test system of assay [5] is Pseudomonas aeruginosa. The experiment in a line: Antibacterial activity against Pseudomonas aeruginosa after 24 hrs by twofold serial dilution method. Format: functional.
The test system of assay [6] is Aspergillus flavus. The experiment in a line: Antifungal activity against Aspergillus flavus after 72 to 96 hrs by twofold serial dilution method. Format: functional.
For assay [7], the system named is Candida albicans. The experiment in a line: Antifungal activity against Candida albicans after 72 to 96 hrs by twofold serial dilution method. Format: functional.
For assay [8], the system named is Candida. Nature of the assay: Antifungal activity against Candida 6 after 72 to 96 hrs by twofold serial dilution method. Type of assay: functional.
The subject of assay [9] is Candida. The experiment in a line: Antifungal activity against Candida 51 after 72 to 96 hrs by twofold serial dilution method. Type of assay: functional.
Assay [10] deals with Aspergillus flavus. The experiment in a line: Antifungal activity against Aspergillus flavus at 200 ug/ml after 72 to 96 hrs by twofold serial dilution method. Type of assay: functional, organism-based.
Assay [11] concerns Candida. Nature of the assay: Antifungal activity against Candida 51 at 200 ug/ml after 72 to 96 hrs by twofold serial dilution method. Type of assay: functional, organism-based.
Assay [12] has as its system Escherichia coli. The experiment in a line: Antibacterial activity against Escherichia coli at 200 ug/ml after 24 hrs by twofold serial dilution method. Format: functional, organism-based.
Assay [13] has as its system Staphylococcus aureus. The experiment in a line: Antibacterial activity against Staphylococcus aureus at 200 ug/ml after 24 hrs by twofold serial dilution method. Format: functional, organism-based.

Each structure is given as a SMILES string. Values after ≈ are worked out from the molar mass of the structure shown. Active and inactive are the calls of the source. No cut-off for these calls is given here.

As for `CC1(C)/C(=N/N2C(=O)CNC2=S)CC(c2ccc(Cl)cc2)NC1c1ccc(Cl)cc1` (configuration not stated), the MIC – broadly, the lowest concentration that inhibits growth of the organism – in assay [1] is 25 µg/mL (≈ 54.2 µM); in assay [2] it was 12.5 µg/mL (≈ 27.1 µM); in [3], 12.5 µg/mL (≈ 27.1 µM); in assay [4], 50 µg/mL (≈ 108 µM); in assay [5], 25 µg/mL (≈ 54.2 µM); in [6], 25 µg/mL (≈ 54.2 µM). In addition, the MIC in [7], in assay [8] and in assay [9] was 50 µg/mL (≈ 108 µM) throughout.

As to `Cc1ccc(C2C/C(=N\N3C(=O)CNC3=S)C(C)(C)C(c3ccc(C)cc3)N2)cc1` (configuration not stated), the MIC in [1] stood at 25 µg/mL (≈ 59.4 µM); in assay [2], 25 µg/mL (≈ 59.4 µM); in assay [3], 25 µg/mL (≈ 59.4 µM); in assay [4] it was 50 µg/mL (≈ 119 µM); in assay [5] it was 100 µg/mL (≈ 238 µM); in [6], 25 µg/mL (≈ 59.4 µM). The figures for the minimal inhibitory concentration (MIC) in assay [7], in assay [8] and in assay [9] were 25 µg/mL (≈ 59.4 µM), 6.25 µg/mL (≈ 14.9 µM) and 12.5 µg/mL (≈ 29.7 µM), respectively.

In the case of `O=C1CNC(=S)N1N=C1CC(c2ccccc2)NC(c2ccccc2)C1` (configuration not stated), the MIC in [1] worked out at 100 µg/mL (≈ 274 µM); in [2], 50 µg/mL (≈ 137 µM); in assay [3], 50 µg/mL (≈ 137 µM); in [4], 50 µg/mL (≈ 137 µM); in assay [5], 50 µg/mL (≈ 137 µM); in assay [6], 12.5 µg/mL (≈ 34.3 µM). In addition, the MIC in assay [7] turned out to be 12.5 µg/mL (≈ 34.3 µM); in [8], 50 µg/mL (≈ 137 µM); in assay [9], 100 µg/mL (≈ 274 µM).

Regarding `CC1(C)/C(=N/N2C(=O)CNC2=S)CC(c2ccc(F)cc2)NC1c1ccc(F)cc1` (configuration not stated), the MIC turned out to be 12.5 µg/mL (≈ 29.2 µM) in assay [1]; 6.25 µg/mL (≈ 14.6 µM) in assay [2]; 6.25 µg/mL (≈ 14.6 µM) in assay [3]; 6.25 µg/mL (≈ 14.6 µM) in [4]; 6.25 µg/mL (≈ 14.6 µM) in assay [5]; 25 µg/mL (≈ 58.3 µM) in [6]. In addition, the MIC in [7], in assay [8] and in assay [9] was 50 µg/mL (≈ 117 µM) throughout.

`CC1(C)/C(=N/N2C(=O)CNC2=S)CC(c2ccccc2)NC1c1ccccc1` (configuration not stated): the MIC in assay [1] amounted to 100 µg/mL (≈ 255 µM); in [2], 25 µg/mL (≈ 63.7 µM); in [3], 25 µg/mL (≈ 63.7 µM); in assay [4] it was 100 µg/mL (≈ 255 µM); in assay [5], 100 µg/mL (≈ 255 µM); in assay [7] it was 50 µg/mL (≈ 127 µM). Moreover, the values for the minimum inhibitory concentration (MIC) in [8] and in assay [9] were 100 µg/mL (≈ 255 µM) and 50 µg/mL (≈ 127 µM), respectively. Besides, the MIC entry in assay [10] was “inactive”.

Turning to `OC(Cn1cncn1)(Cn1cncn1)c1ccc(F)cc1F` [FLUCONAZOLE], the MIC in [6] came out at 50 µg/mL (≈ 163 µM); in [7] it was 50 µg/mL (≈ 163 µM); in assay [8], 25 µg/mL (≈ 81.6 µM); in [9], 25 µg/mL (≈ 81.6 µM).

For `CC1/C(=N/N2C(=O)CNC2=S)CC(c2ccc(Cl)cc2)NC1c1ccc(Cl)cc1` (configuration not stated), the MIC is 6.25 µg/mL (≈ 14 µM) in [1]; 50 µg/mL (≈ 112 µM) in assay [2]; 50 µg/mL (≈ 112 µM) in assay [3]; 50 µg/mL (≈ 112 µM) in assay [4]; 50 µg/mL (≈ 112 µM) in assay [5]; 12.5 µg/mL (≈ 27.9 µM) in [6]. Moreover, the MIC in [7] was found to be 50 µg/mL (≈ 112 µM); in [8], 50 µg/mL (≈ 112 µM); in [9] it was 12.5 µg/mL (≈ 27.9 µM).

As for `Cc1ccc(C2C/C(=N\N3C(=O)CNC3=S)C(C)C(c3ccc(C)cc3)N2)cc1` (configuration not stated), the MIC in assay [1] amounted to 25 µg/mL (≈ 61.5 µM); in assay [2], 50 µg/mL (≈ 123 µM); in [3], 50 µg/mL (≈ 123 µM); in assay [4], 50 µg/mL (≈ 123 µM); in [5], 50 µg/mL (≈ 123 µM); in assay [6], 12.5 µg/mL (≈ 30.7 µM). Further, the values for the MIC in [7], in assay [8] and in [9] were 50 µg/mL (≈ 123 µM), 6.25 µg/mL (≈ 15.4 µM) and 12.5 µg/mL (≈ 30.7 µM), respectively.

Regarding `O=C(O)c1cn(C2CC2)c2cc(N3CCNCC3)c(F)cc2c1=O` [CIPROFLOXACIN], the results for the MIC in assay [2], in assay [3] and in assay [4] were 50 µg/mL (≈ 151 µM), 50 µg/mL (≈ 151 µM) and 25 µg/mL (≈ 75.4 µM), respectively.

On to `COc1ccc(C2CC(=NN3C(=O)CNC3=S)CC(c3ccc(OC)cc3)N2)cc1` (configuration not stated), for which the MIC in assay [1] amounted to 50 µg/mL (≈ 118 µM); in assay [2], 100 µg/mL (≈ 236 µM); in assay [3], 100 µg/mL (≈ 236 µM); in assay [4], 50 µg/mL (≈ 118 µM); in assay [5] it was 100 µg/mL (≈ 236 µM); in assay [6] it was 12.5 µg/mL (≈ 29.4 µM). Moreover, the MIC in assay [7] came out at 12.5 µg/mL (≈ 29.4 µM); in assay [8], 6.25 µg/mL (≈ 14.7 µM). In addition, the MIC result in assay [11] was “inactive”.

`O=C1CNC(=S)N1N=C1CC(c2ccc(F)cc2)NC(c2ccc(F)cc2)C1` (configuration not stated): the MIC in [1] came to 50 µg/mL (≈ 125 µM); in [2], 6.25 µg/mL (≈ 15.6 µM); in [3], 6.25 µg/mL (≈ 15.6 µM); in [4], 12.5 µg/mL (≈ 31.2 µM); in assay [5], 6.25 µg/mL (≈ 15.6 µM); in assay [6] it was 12.5 µg/mL (≈ 31.2 µM). Moreover, the MIC in assay [7], in assay [8] and in assay [9] was 50 µg/mL (≈ 125 µM) in each case.

With `COc1ccc(C2C/C(=N\N3C(=O)CNC3=S)C(C)C(c3ccc(OC)cc3)N2)cc1` (configuration not stated), the MIC stood at 50 µg/mL (≈ 114 µM) in [1]; 25 µg/mL (≈ 57 µM) in assay [2]; 25 µg/mL (≈ 57 µM) in assay [3]; 100 µg/mL (≈ 228 µM) in assay [4]; 25 µg/mL (≈ 57 µM) in assay [5]; 12.5 µg/mL (≈ 28.5 µM) in assay [6]. Moreover, the MIC in assay [7] was found to be 50 µg/mL (≈ 114 µM); in [8], 12.5 µg/mL (≈ 28.5 µM); in assay [9], 12.5 µg/mL (≈ 28.5 µM).

As to `CC1/C(=N/N2C(=O)CNC2=S)CC(c2ccc(F)cc2)NC1c1ccc(F)cc1` (configuration not stated), the MIC in assay [1] worked out at 6.25 µg/mL (≈ 15.1 µM); in assay [2], 12.5 µg/mL (≈ 30.2 µM); in [3], 12.5 µg/mL (≈ 30.2 µM); in [4], 12.5 µg/mL (≈ 30.2 µM); in assay [5], 6.25 µg/mL (≈ 15.1 µM); in assay [6], 6.25 µg/mL (≈ 15.1 µM). Also, the MIC in assay [7] came out at 6.25 µg/mL (≈ 15.1 µM); in assay [8], 12.5 µg/mL (≈ 30.2 µM); in assay [9], 6.25 µg/mL (≈ 15.1 µM).

`COc1ccc(C2C/C(=N\N3C(=O)CNC3=S)C(C)(C)C(c3ccc(OC)cc3)N2)cc1` (configuration not stated): the MIC in [1] was 200 µg/mL (≈ 442 µM); in [2] it was 50 µg/mL (≈ 110 µM); in [3] it was 50 µg/mL (≈ 110 µM); in assay [5], 50 µg/mL (≈ 110 µM); in [6], 6.25 µg/mL (≈ 13.8 µM); in assay [7], 12.5 µg/mL (≈ 27.6 µM). Also, the MIC in [8] came out at 25 µg/mL (≈ 55.2 µM); in assay [9], 6.25 µg/mL (≈ 13.8 µM). In assay [12], the MIC result was “inactive”.

On to `CC1/C(=N/N2C(=O)CNC2=S)CC(c2ccccc2)NC1c1ccccc1` (configuration not stated), for which the MIC in assay [1] was found to be 200 µg/mL (≈ 528 µM); in assay [2] it was 100 µg/mL (≈ 264 µM); in [3], 100 µg/mL (≈ 264 µM); in assay [4] it was 50 µg/mL (≈ 132 µM); in assay [5], 50 µg/mL (≈ 132 µM); in assay [6], 50 µg/mL (≈ 132 µM). For the same compound, the MIC in assay [7], in assay [8] and in [9] was 50 µg/mL (≈ 132 µM) throughout.

`O=C1CNC(=S)N1N=C1CC(c2ccc(Cl)cc2)NC(c2ccc(Cl)cc2)C1` (configuration not stated): the MIC in [1] is 50 µg/mL (≈ 115 µM); in [2] it was 6.25 µg/mL (≈ 14.4 µM); in assay [3], 6.25 µg/mL (≈ 14.4 µM); in assay [4] it was 12.5 µg/mL (≈ 28.8 µM); in [5] it was 6.25 µg/mL (≈ 14.4 µM); in [6], 50 µg/mL (≈ 115 µM). Besides, the figures for the MIC in assay [7], in assay [8] and in assay [9] were 50 µg/mL (≈ 115 µM), 12.5 µg/mL (≈ 28.8 µM) and 25 µg/mL (≈ 57.7 µM), respectively.

In the case of `Cc1ccc(C2CC(=NN3C(=O)CNC3=S)CC(c3ccc(C)cc3)N2)cc1` (configuration not stated), the MIC in assay [2] came out at 100 µg/mL (≈ 255 µM); in assay [3] it was 100 µg/mL (≈ 255 µM); in assay [4], 200 µg/mL (≈ 510 µM); in [5], 25 µg/mL (≈ 63.7 µM); in [6], 6.25 µg/mL (≈ 15.9 µM); in assay [7], 12.5 µg/mL (≈ 31.8 µM). The MIC in [8] and in [9] was 6.25 µg/mL (≈ 15.9 µM) each time. In [13], the MIC entry is “inactive”.
